Assay results as given in patent US7550456B2, “Substituted aryl cycloalkanoyl derivatives and methods of their use” (Wyeth, priority 2003, dated 2009).
Structures can show the parent of a compound that is named as a salt.

The compounds below were run against T1, human hNET (Homo sapiens, UniProt P23975) (assay: Norepinephrine (NE) uptake assay in MDCK-Net6 cells). Details: 1 μM test compound, [3H]NE uptake, read-out: % Inhibition @ 1 μM (hNET).
T1 construct: expressed in transfected cells; host or cells: MDCK-Net6 (MDCK cells, stably transfected)
Type: cell-based
Protocol: Cells were plated at 300,000/T75 flask and cells were split twice weekly. […] Cells were plated at 250,000 cells/T75 flask and split twice weekly.
Norepinephrine (NE) Uptake Assay
On day 1, cells were plated at 3,000 cells/well in growth medium and maintained in a cell incubator (37° C., 5% CO2). On day 2, growth medium was replaced with 200 μl of assay buffer (25 mM HEPES; 120 mM NaCl; 5 mM KCl; 2.5 mM CaCl2; 1.2 mM MgSO4; 2 mg/ml glucose (pH 7.4, 37° C.)) containing 0.2 mg/ml ascorbic acid and 10 μM pargyline. Plates containing cells with 200 μl of assay buffer were equilibrated for 10 minutes at 37° C. prior to addition of compounds. A stock solution of desipramine was prepared in DMSO (10 mM) and delivered to triplicate wells containing cells for a final test concentration of 1 μM. Data from these wells were used to define non-specific NE uptake (minimum NE uptake). Test compounds were prepared in DMSO (10 mM) and diluted in assay buffer according to test range (1 to 10,000 nM). Twenty-five microliters of assay buffer (maximum NE uptake) or test compound were added directly to triplicate wells containing cells in 200 μl of assay buffer. The cells in assay buffer with test compounds were incubated for 20 minutes at 37° C. […] The reaction was terminated by decanting the supernatant from the plate. The plates containing cells were washed twice with 200 μl assay buffer (37° C.) to remove free radioligand. The plates were then inverted, left to dry for 2 minutes, then reinverted and air-dried for an additional 10 minutes. The cells were lysed in 25 μl of 0.25 N NaOH solution (4° C.), placed on a shake table and vigorously shaken for 5 minutes. After cell lysis, 75 μl of scintillation cocktail was added to each well and the plates were sealed with film tape. The plates were returned to the shake table and vigorously shaken for a minimum of 10 minutes to ensure adequate partitioning of organic and aqueous solutions. The plates were counted in a Wallac Microbeta counter (PerkinElmer) to collect the raw cpm data.
For each experiment, a data stream of cpm values collected from the Wallac Microbeta counter was downloaded to a Microsoft Excel statistical application program. Calculations of EC50 values were made using the transformed-both-sides logistic dose response program written by Wyeth Biometrics Department.

T1 sequence (P23975 whole entry): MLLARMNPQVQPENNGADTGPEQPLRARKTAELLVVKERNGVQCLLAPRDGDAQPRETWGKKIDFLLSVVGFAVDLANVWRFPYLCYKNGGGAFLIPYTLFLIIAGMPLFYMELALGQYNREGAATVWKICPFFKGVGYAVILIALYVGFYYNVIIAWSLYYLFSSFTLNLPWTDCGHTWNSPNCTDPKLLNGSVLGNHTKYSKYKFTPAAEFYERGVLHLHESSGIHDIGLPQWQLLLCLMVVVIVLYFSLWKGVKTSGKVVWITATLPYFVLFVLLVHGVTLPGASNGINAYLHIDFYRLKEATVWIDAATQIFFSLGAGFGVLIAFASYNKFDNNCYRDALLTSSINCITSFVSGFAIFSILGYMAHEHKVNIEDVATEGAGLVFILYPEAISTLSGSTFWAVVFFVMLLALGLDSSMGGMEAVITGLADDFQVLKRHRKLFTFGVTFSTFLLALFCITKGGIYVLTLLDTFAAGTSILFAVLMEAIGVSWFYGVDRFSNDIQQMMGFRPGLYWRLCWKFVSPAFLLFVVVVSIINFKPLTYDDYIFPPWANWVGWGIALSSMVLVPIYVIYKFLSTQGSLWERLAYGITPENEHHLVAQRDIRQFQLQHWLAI

Row | SMILES | inhibition at 1 µM [%]
1 | OC1(C(CN2CCNCC2)c2cccc(OCc3ccccc3)c2)CCC1 (stereo not shown) [Example 111, 1-{1-[3-(benzyloxy)phenyl]-2-piperazin-1-ylethyl}cyclobutanol dihydrochloride] | -3
2 | C[C@@H]1CCC(O)(C(CN2CCN(C)CC2)c2cccc(OC(F)(F)F)c2)C1 (stereo partly drawn) [Example 395, (3R)-3-methyl-1-{2-(4-methylpiperazin-1-yl)-1-[3-(trifluoromethoxy)phenyl]ethyl}cyclopentanol dihydrochloride] | 92
3 | OC1(C(CN2CCNCC2)c2cccc(-c3cccc(OC(F)(F)F)c3)c2)CCCCC1 (stereo not shown) [Example 248, 1-{2-piperazin-1-yl-1-[3′-(trifluoromethoxy)-1,1′-biphenyl-3-yl]ethyl}cyclohexanol dihydrochloride] | 7
4 | OC1(C(CN2CCNCC2)c2ccc(-c3cc(Cl)ccc3Cl)cc2)CCCCC1 (stereo not shown) [Example 291, 1-[1-(2′,5′-dichloro-1,1′-biphenyl-4-yl)-2-piperazin-1-ylethyl]cyclohexanol dihydrochloride] | 40
5 | OC1(C(CN2CCNCC2)c2ccc(OCc3ccccc3)c(OC(F)(F)F)c2)CCCCC1 (stereo not shown) [Example 268, 1-{1-[4-(benzyloxy)-3-(trifluoromethoxy)phenyl]-2-piperazin-1-ylethyl}cyclohexanol dihydrochloride] | 84
6 | OC1([C@H](CN2CCN3CCCCC3C2)c2cccc(OC(F)(F)F)c2)CCCCC1 (stereo partly drawn) [Example 371, 1-{(1S)-2-(octahydro-2H-pyrido[1,2-a]pyrazin-2-yl)-1-[3-(trifluoromethoxy)phenyl]ethyl}cyclohexanol dihydrochloride] | 78
7 | CN1CCN(CC(c2cccc(OCc3ccccc3)c2)C2(O)CCCCC2)CC1 (stereo not shown) [Example 108, 1-[1-[3-(benzyloxy)phenyl]-2-(4-methylpiperazin-1-yl)ethyl]cyclohexanol dihydrochloride] | 0
8 | CN1CCN(CC(c2cccc(OC(F)(F)F)c2)C2(O)CCC2)CC1 (stereo not shown) [Example 92, 1-{2-(4-methylpiperazin-1-yl)-1-[3-(trifluoromethoxy)phenyl]ethyl}cyclobutanol dihydrochloride] | 13
9 | C[C@H]1CN(C[C@H](c2cccc(OC(F)(F)F)c2)C2(O)CCCCC2)CCN1C [Example 349, 1-{(1S)-2-[(3S)-3,4-dimethylpiperazin-1-yl]-1-[3-(trifluoromethoxy)phenyl]ethyl}cyclohexanol dihydrochloride] | 82
10 | CN1CCN(CC(c2ccc(-c3ccc(Cl)c(Cl)c3)cc2)C2(O)CCC2)CC1 (stereo not shown) [Example 296, 1-[1-(3′,4′-dichloro-1,1′-biphenyl-4-yl)-2-(4-methylpiperazin-1-yl)ethyl]cyclobutanol dihydrochloride] | 13
11 | COc1cc(C(CN2CCNCC2)C2(O)CCCCC2)ccc1OCc1ccc(C(F)(F)F)cc1 (stereo not shown) [Example 448, 1-[1-(3-methoxy-4-{[4-(trifluoromethyl)benzyl]oxy}phenyl)-2-piperazin-1-ylethyl]cyclohexanol dihydrochloride] | 78
12 | OC1(C(CN2CCNCC2)c2cccc(-c3ccc(Cl)c(Cl)c3)c2)CCC1 (stereo not shown) [Example 153, 1-[1-(3′,4′-dichloro-1,1′-biphenyl-3-yl)-2-piperazin-1-ylethyl]cyclobutanol dihydrochloride] | 2
13 | C[C@@H]1CN(C[C@H](c2cccc(OC(F)(F)F)c2)C2(O)CCCCC2)CCN1C [Example 370, 1-{(1S)-2-[(3R)-3,4-dimethylpiperazin-1-yl]-1-[3-(trifluoromethoxy)phenyl]ethyl}cyclohexanol dihydrochloride] | 79
14 | N#Cc1cc(C(CN2CCNCC2)C2(O)CCCCC2)ccc1OCc1ccccc1 (stereo not shown) [Example 266, 2-(benzyloxy)-5-[1-(1-hydroxycyclohexyl)-2-piperazin-1-ylethyl]benzonitrile dihydrochloride] | 91
15 | COc1ccc(C(CN2CCN(C)CC2)C2(O)CCCCC2)cc1-c1ccc(C(F)(F)F)cc1 (stereo not shown) [Example 257, 1-[1-[6-methoxy-4′-(trifluoromethyl)-1,1′-biphenyl-3-yl]-2-(4-methylpiperazin-1-yl)ethyl]cyclohexanol dihydrochloride] | 17
16 | CN1CCN(CC(c2ccc(OCc3ccccc3)c(C#N)c2)C2(O)CCCCC2)CC1 (stereo not shown) [Example 267, 2-(benzyloxy)-5-[1-(1-hydroxycyclohexyl)-2-(4-methylpiperazin-1-yl)ethyl]benzonitrile dihydrochloride] | 89
17 | CN1CCN(CC(c2ccc(OCc3ccc(C(F)(F)F)cc3)cc2)C2(O)CCCCC2)CC1 (stereo not shown) [Example 437, 1-[2-(4-methylpiperazin-1-yl)-1-(4-{[4-(trifluoromethyl)benzyl]oxy}phenyl)ethyl]cyclohexanol dihydrochloride] | 38
18 | C[C@@H]1CCC(O)(C(CN2CCNCC2)c2cccc(OC(F)(F)F)c2)C1 (stereo partly drawn) [Example 394, (3R)-3-methyl-1-{2-piperazin-1-yl-1-[3-(trifluoromethoxy)phenyl]ethyl}cyclopentanol dihydrochloride] | 35
19 | OC1(C(CN2CCNCC2)c2ccc(-c3cccc(F)c3)cc2)CCCCC1 (stereo not shown) [Example 166, 1-[1-(3′-fluoro-1,1′-biphenyl-4-yl)-2-piperazin-1-ylethyl]cyclohexanol dihydrochloride] | 48
20 | CN1CCN(CC(c2ccc(-c3cc(Cl)cc(Cl)c3)cc2)C2(O)CCC2)CC1 (stereo not shown) [Example 297, 1-[1-(3′,5′-dichloro-1,1′-biphenyl-4-yl)-2-(4-methylpiperazin-1-yl)ethyl]cyclobutanol dihydrochloride] | 4
21 | CCC1CN(C[C@H](c2cccc(OC(F)(F)F)c2)C2(O)CCCCC2)CCN1 (stereo partly drawn) [Example 350, 1-{(1S)-2-(3-ethylpiperazin-1-yl)-1-[3-(trifluoromethoxy)phenyl]ethyl}cyclohexanol dihydrochloride] | 79
22 | OC1(C(CN2CCNCC2)c2ccc(-c3ccc(Cl)c(Cl)c3)cc2)CCC1 (stereo not shown) [Example 184, 1-[1-(3′,4′-dichloro-1,1′-biphenyl-4-yl)-2-piperazin-1-ylethyl]cyclobutanol dihydrochloride] | 40
23 | C[C@@H]1CN(C[C@H](c2cccc(OC(F)(F)F)c2)C2(O)CCCCC2)C[C@H](C)N1 [Example 367, 1-{(1S)-2-[(3R,5S)-3,5-dimethylpiperazin-1-yl]-1-[3-(trifluoromethoxy)phenyl]ethyl}cyclohexanol dihydrochloride] | 94
24 | OC1(C(CN2CCNCC2)c2ccc(Oc3cccc4ccccc34)cc2)CCCCC1 (stereo not shown) [Example 389, 1-{1-[4-(1-naphthyloxy)phenyl]-2-piperazin-1-ylethyl}cyclohexanol dihydrochloride] | 16
25 | COc1ccccc1COc1ccc(C(CN2CCN(C)CC2)C2(O)CCCCC2)cc1Cl (stereo not shown) [Example 457, 1-[1-{3-chloro-4-[(2-methoxybenzyl)oxy]phenyl}-2-(4-methylpiperazin-1-yl)ethyl]cyclohexanol dihydrochloride] | 77
26 | COc1cc(C(CN2CCNCC2)C2(O)CCCCC2)ccc1OCc1ccc(Br)cc1F (stereo not shown) [Example 446, 1-(1-{4-[(4-bromo-2-fluorobenzyl)oxy]-3-methoxyphenyl}-2-piperazin-1-ylethyl)cyclohexanol] | 69
27 | OC1(C(CN2CCNCC2)c2ccc(-c3cccc(OC(F)(F)F)c3)cc2)CCC1 (stereo not shown) [Example 183, 1-{2-piperazin-1-yl-1-[3′-(trifluoromethoxy)-1,1′-biphenyl-4-yl]ethyl}cyclobutanol dihydrochloride] | 16

Same assay, conditions: 10 μM test compound (stated in the cell), [3H]NE uptake

Row | SMILES | inhibition at 10 µM [%]
28 | COc1ccc(C(CN2CCN(C)CC2)C2(O)CCCCC2)cc1-c1ccc(Cl)c(Cl)c1 (stereo not shown) [Example 255, 1-[1-(3′,4′-dichloro-6-methoxy-1,1′-biphenyl-3-yl)-2-(4-methylpiperazin-1-yl)ethyl]cyclohexanol dihydrochloride] | 70.7

Same assay, conditions: MDCK-Net6, read-out: % Inhibition @ 1 μM (hNET), 1 μM test compound, [3H]NE uptake

Row | SMILES | inhibition at 1 µM [%]
29 | OC1(C(CN2CCNCC2)c2cccc(OC(F)(F)F)c2)CCCCC1 (stereo not shown) [Example 23, 1-{2-piperazin-1-yl-1-[3-(trifluoromethoxy)phenyl]ethyl}cyclohexanol dihydrochloride] | 85

Same assay, conditions: [3H]NE uptake, test range 1 to 10,000 nM

Row | SMILES | EC50 [µM]
30 | CN1CCN(CC(c2ccc(OCc3ccccc3)c(OC(F)(F)F)c2)C2(O)CCCCC2)CC1 (stereo not shown) [Example 408, 1-[1-[4-(benzyloxy)-3-(trifluoromethoxy)phenyl]-2-(4-methylpiperazin-1-yl)ethyl]cyclohexanol dihydrochloride] | 0.398
31 | OC1(C(CN2CCNCC2)c2cccc(OC(F)(F)F)c2)CCCCC1 (stereo not shown) [Example 23, 1-{2-piperazin-1-yl-1-[3-(trifluoromethoxy)phenyl]ethyl}cyclohexanol dihydrochloride] | 0.35
